Source: ChEMBL document CHEMBL4118122, “Identification and biological evaluation of thiazole-based inverse agonists of RORγt” (Bioorg Med Chem Lett, 2018)
Converted amounts (≈) assume the structure as drawn.

Tests used:
[1] = Thermodynamic solubility of the compound in fasted state simulated intestinal […] after 2 to 5 days by UV-HPLC analysis; format: physicochemical; conditions: read-out: Therm_solubility
Cytochrome P450 2D6 = Cytochrome P450 2D6 (Homo sapiens, UniProt P10635); assay: Inhibition of CYP2D6 (unknown origin); format: ADME
Chain of Cytochrome P450 2D6 (P10635 whole entry): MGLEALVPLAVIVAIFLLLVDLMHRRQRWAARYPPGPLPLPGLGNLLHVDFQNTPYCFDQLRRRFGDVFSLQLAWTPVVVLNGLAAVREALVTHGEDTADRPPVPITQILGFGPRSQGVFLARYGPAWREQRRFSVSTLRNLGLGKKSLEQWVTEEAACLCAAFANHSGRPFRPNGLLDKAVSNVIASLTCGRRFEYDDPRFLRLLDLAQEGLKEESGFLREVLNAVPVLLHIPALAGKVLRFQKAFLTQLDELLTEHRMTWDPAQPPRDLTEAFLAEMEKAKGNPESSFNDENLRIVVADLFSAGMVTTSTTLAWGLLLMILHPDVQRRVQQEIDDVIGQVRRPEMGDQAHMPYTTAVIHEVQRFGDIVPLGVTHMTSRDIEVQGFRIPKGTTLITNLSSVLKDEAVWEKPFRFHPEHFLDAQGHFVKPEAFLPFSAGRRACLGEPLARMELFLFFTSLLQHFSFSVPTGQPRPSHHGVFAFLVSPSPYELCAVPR

[2] = Half life in human microsomes; format: ADME, Microsome
Cytochrome P450 2C9 = Cytochrome P450 2C9 (Homo sapiens, UniProt P11712); assay: Inhibition of CYP2C9 (unknown origin); format: ADME
Chain of Cytochrome P450 2C9 (P11712 whole entry): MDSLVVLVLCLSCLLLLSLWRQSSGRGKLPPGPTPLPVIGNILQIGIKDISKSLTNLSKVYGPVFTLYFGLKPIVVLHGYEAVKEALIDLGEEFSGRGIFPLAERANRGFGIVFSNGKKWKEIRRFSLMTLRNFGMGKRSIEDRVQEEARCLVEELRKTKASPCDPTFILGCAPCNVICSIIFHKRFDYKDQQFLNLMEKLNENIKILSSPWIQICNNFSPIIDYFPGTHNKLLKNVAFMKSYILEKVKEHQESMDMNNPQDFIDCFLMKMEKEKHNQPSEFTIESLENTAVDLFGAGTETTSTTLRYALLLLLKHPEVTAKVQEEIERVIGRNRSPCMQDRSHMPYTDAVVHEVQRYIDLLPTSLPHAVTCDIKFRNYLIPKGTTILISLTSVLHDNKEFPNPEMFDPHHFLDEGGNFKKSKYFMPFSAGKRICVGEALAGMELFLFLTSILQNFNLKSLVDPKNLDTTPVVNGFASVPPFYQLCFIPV

Cytochrome P450 3A4 = Cytochrome P450 3A4 (Homo sapiens, UniProt P08684); assay: Inhibition of CYP3A4 (unknown origin); format: ADME
Chain of Cytochrome P450 3A4 (P08684 whole entry): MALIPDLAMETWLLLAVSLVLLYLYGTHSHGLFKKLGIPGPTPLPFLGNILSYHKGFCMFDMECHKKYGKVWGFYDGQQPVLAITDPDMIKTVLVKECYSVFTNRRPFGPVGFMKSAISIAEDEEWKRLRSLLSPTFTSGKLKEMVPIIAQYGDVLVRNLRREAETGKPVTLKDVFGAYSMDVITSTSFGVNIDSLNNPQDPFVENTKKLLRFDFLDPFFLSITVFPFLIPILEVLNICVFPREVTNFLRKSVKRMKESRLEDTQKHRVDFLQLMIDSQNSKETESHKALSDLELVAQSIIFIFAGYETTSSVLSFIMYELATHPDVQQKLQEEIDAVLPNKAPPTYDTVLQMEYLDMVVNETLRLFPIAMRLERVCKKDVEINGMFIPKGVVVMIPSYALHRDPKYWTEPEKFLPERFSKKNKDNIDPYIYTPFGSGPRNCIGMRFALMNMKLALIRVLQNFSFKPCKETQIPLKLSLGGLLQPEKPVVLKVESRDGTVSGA

Cytochrome P450 2C8 = molecular target: T1, Cytochrome P450 2C8 (Homo sapiens, UniProt P10632); assay: Inhibition of CYP2C8 (unknown origin); format: ADME
T1 sequence (P10632 whole entry): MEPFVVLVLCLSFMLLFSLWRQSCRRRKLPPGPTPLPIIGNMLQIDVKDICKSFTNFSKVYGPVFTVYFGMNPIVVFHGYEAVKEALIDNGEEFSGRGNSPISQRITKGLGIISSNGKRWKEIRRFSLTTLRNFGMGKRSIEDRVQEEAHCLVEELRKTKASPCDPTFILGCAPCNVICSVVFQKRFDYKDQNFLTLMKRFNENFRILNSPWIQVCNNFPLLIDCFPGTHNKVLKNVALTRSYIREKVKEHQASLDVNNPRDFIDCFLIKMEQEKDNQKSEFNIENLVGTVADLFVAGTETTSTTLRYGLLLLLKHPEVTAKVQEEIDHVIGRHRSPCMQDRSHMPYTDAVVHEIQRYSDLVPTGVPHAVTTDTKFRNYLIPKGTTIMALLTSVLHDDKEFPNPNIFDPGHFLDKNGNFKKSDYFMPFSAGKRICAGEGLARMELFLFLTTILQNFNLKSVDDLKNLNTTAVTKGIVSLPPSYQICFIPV

[3] = Thermodynamic solubility of the compound in 30 mM phosphate buffer at 10 mM at pH 7 after 2 to 5 days by UV-HPLC analysis; format: physicochemical; conditions: read-out: Therm_solubility
Cytochrome P450 2C19 = Cytochrome P450 2C19 (Homo sapiens, UniProt P33261); assay: Inhibition of CYP2C19 (unknown origin); format: ADME
Chain of Cytochrome P450 2C19 (P33261 whole entry): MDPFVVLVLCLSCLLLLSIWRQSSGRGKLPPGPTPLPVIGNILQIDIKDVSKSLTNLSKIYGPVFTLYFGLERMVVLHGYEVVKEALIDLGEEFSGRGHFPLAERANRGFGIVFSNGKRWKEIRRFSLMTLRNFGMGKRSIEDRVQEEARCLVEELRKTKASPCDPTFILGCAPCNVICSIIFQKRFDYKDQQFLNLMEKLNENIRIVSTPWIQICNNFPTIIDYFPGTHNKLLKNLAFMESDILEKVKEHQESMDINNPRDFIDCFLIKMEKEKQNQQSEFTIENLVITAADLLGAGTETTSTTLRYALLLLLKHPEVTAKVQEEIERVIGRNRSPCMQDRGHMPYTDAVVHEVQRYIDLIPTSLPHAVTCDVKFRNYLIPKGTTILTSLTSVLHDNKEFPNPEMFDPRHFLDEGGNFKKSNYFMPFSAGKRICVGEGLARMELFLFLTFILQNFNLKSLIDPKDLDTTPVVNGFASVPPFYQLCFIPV

[4] = Half life in rat microsomes; format: ADME, Microsome
Cytochrome P450 1A2 = molecular target: T2, Cytochrome P450 1A2 (Homo sapiens, UniProt P05177); assay: Inhibition of CYP1A2 (unknown origin); format: ADME
T2 sequence (P05177 whole entry): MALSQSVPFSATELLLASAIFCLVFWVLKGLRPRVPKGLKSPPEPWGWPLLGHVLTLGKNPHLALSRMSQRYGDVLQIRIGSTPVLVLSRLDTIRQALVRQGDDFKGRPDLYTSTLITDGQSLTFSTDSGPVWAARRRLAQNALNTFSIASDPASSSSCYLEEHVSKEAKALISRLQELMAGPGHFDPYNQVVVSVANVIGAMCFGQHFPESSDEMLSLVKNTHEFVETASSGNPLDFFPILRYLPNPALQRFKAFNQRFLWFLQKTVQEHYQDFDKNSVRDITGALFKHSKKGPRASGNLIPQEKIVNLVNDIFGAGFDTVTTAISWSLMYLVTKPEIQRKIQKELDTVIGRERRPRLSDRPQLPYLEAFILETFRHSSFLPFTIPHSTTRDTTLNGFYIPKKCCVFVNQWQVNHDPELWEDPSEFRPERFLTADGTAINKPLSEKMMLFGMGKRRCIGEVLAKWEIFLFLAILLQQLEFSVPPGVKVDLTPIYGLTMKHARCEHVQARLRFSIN

PXR (NR1I2) [5] = molecular target: T3, PXR (NR1I2) (Homo sapiens, UniProt O75469); assay: […] at PXR LBD (unknown origin) expressed in HEK293 cells […] at 10 uM after 16 hrs by luciferase reporter gene assay relative to rifampicin; format: ADME, cell-based; conditions: HEK293 cells expressing PXR LBD, read-out: Efficacy
T3 sequence (O75469 whole entry): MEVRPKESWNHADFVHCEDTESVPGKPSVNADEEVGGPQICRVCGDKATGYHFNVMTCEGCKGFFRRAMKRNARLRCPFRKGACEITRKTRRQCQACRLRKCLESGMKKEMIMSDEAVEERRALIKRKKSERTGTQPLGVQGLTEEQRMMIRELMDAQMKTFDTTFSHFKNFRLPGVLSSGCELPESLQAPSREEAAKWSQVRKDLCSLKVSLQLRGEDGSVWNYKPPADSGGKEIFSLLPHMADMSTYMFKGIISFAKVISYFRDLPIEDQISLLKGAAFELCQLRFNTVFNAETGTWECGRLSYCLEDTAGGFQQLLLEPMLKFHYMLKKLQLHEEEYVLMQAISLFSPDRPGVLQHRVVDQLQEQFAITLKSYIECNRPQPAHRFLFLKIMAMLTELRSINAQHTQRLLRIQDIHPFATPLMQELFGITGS

PXR (NR1I2) [6] = molecular target: T3, PXR (NR1I2); assay: […] at PXR LBD (unknown origin) expressed in HEK293 cells […] at 1 uM after 16 hrs by luciferase reporter gene assay relative to rifampicin; format: ADME, cell-based; conditions: HEK293 cells expressing PXR LBD, read-out: Efficacy
[7] = molecular target: T4, Nuclear receptor ROR-beta (Homo sapiens, UniProt Q92753); assay: Binding affinity to recombinant human RORbeta LBD (201 to 452 residues) expressed in Escherichia coli BL21 (DE3) GOLD by 1,8-ANS dye-based thermofluor assay
T4 sequence (Q92753 whole entry): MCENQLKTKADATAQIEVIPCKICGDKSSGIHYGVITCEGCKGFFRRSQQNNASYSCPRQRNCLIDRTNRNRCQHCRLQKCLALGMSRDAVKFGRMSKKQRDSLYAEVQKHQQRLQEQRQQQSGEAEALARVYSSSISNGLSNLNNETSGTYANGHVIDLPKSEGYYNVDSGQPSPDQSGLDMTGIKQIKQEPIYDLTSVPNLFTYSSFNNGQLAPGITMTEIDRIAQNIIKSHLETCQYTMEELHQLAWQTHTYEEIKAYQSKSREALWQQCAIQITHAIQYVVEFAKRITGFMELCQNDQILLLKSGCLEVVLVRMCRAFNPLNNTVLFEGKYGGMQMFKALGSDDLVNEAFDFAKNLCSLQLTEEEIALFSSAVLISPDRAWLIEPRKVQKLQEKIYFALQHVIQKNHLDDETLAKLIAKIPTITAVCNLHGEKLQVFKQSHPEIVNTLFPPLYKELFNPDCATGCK

[8] = Tmax in Sprague-Dawley rat at 5 mg/kg, po; format: ADME, organism-based; conditions: in vivo
[9] = Clearance in Sprague-Dawley rat at 1 mg/kg, iv; format: ADME, organism-based; conditions: in vivo
[10] = Oral bioavailability in Sprague-Dawley rat at 5 mg/kg; format: ADME, organism-based; conditions: in vivo
[11] = AUC (0 to infinity) in Sprague-Dawley rat at 1 mg/kg, iv; format: ADME, organism-based; design: dose 1 mg/kg, time infinity, route intravenous; conditions: in vivo
[12] = Cmax in Sprague-Dawley rat at 5 mg/kg, po; format: ADME, organism-based; design: dose 5 mg/kg, route oral; conditions: in vivo
[13] = AUC (0 to infinity) in Sprague-Dawley rat at 5 mg/kg, po; format: ADME, organism-based; design: dose 5 mg/kg, route oral, time infinity; conditions: in vivo
[14] = Half life in Sprague-Dawley rat at 1 mg/kg, iv; format: ADME, organism-based; conditions: in vivo
[15] = Initial plasma concentration in Sprague-Dawley rat at 1 mg/kg, iv; format: ADME, organism-based
PXR (NR1I2) [16] = molecular target: T3, PXR (NR1I2); assay: […] at PXR LBD (unknown origin) expressed in HEK293 cells […] at 5 uM after 16 hrs by luciferase reporter gene assay relative to rifampicin; format: ADME, cell-based; conditions: HEK293 cells expressing PXR LBD, read-out: Efficacy
[17] = Volume of distribution at steady state in Sprague-Dawley rat at 1 mg/kg, iv; format: ADME, organism-based; conditions: in vivo, read-out: Vdss
[18] = Terminal half life in Sprague-Dawley rat at 5 mg/kg, po; format: ADME, organism-based; conditions: in vivo, read-out: beta t1/2 (converted)

| Structure (SMILES) | solubility thermodynamic [1] [µM] | INH (Cytochrome P450 2D6) [µM] | half-life [2] [h] | INH (Cytochrome P450 2C9) [µM] | INH (Cytochrome P450 3A4) [µM] | INH (Cytochrome P450 2C8) [µM] | solubility thermodynamic at 10000 µM [3] [µM] | INH (Cytochrome P450 2C19) [µM] | half-life [4] [h] | INH (Cytochrome P450 1A2) [µM] | Emax at 16 h, 10 µM (PXR (NR1I2) [5]) [%] | Emax at 16 h, 1 µM (PXR (NR1I2) [6]) [%] | Kd [7] [µM] | Emax at 16 h, 5 µM (PXR (NR1I2) [16]) [%] | further results |
| --- | --- | --- | --- | --- | --- | --- | --- | --- | --- | --- | --- | --- | --- | --- | --- |
| CC(C)(C)NS(=O)(=O)c1ccc(-c2sc(C(=O)N[C@H]3C[C@H](C(=O)O)C3)nc2CC2CCCCC2)c(C(F)(F)F)c1 | > 400 | > 10 | > 3 | > 10 | > 10 | 3.4 | < 4 | > 10 | 2.33 | > 10 | – | – | – | – | – |
| Cc1c(S(=O)(=O)NC(C)(C)C)ccc(-c2sc(C(=O)N[C@H]3C[C@H](C(=O)O)C3)nc2CC2CCCCC2)c1OC(F)F | 50 (≈ 30.7 µg/mL) | > 10 | 0.617 | 8.7 | > 10 | 4 | < 1 | > 10 | 0.433 | > 10 | 173 | 86 | – | – | – |
| CC(C)(C)NS(=O)(=O)c1ccc(-c2sc(C(=O)N3CC4(C3)CS(=O)(=O)C4)nc2CC2CCCCC2)c2ccccc12 | – | – | – | – | – | – | – | – | – | – | – | – | > 85 | – | – |
| C[C@H](NS(=O)(=O)c1ccc(-c2sc(C(=O)NCC(C)(C)O)nc2CC2CC2)c2ccccc12)C(F)(F)F | – | > 10 | > 3 | 0.4 | > 10 | 3.3 | < 4 | 2 | 0.9 | > 10 | – | 122 | – | 188 | Tmax [8]: 0.8 h; clearance [9]: 40.7 mL/min/kg; bioavailability [10]: 14.8%; AUC(0-inf) [11]: 415 ng·h/mL; Cmax [12]: 55 ng/mL; AUC(0-inf) [13]: 314 ng·h/mL; half-life [14]: 10.2 h; C0 [15]: 119 ng/mL; Vd [17]: 29.5 L/kg; half-life [18]: 6.9 h |
| C[C@H](NC(=O)c1cc(-c2sc(C(=O)N[C@H]3C[C@H](C(=O)O)C3)nc2CC2CCCCC2)cc(C2(C)CC2)c1)C(F)(F)F | – | > 10 | > 3 | > 10 | > 10 | > 10 | 17 (≈ 10.1 µg/mL) | > 10 | 2.5 | > 10 | 94 | 26 | – | – | – |
| CC(C)NS(=O)(=O)c1ccc(-c2sc(C(=O)N[C@H]3C[C@H](C(=O)O)C3)nc2CC2CCCCC2)c(C(F)F)c1Cl | > 400 | > 10 | 1.88 | 7.6 | > 10 | 6.2 | 11 (≈ 6.65 µg/mL) | > 10 | 1.42 | > 10 | – | 66 | – | 113 | – |
| CC(C)(C)NS(=O)(=O)c1ccc(-c2sc(C(=O)N[C@H]3C[C@H](C(=O)O)C3)nc2CC2CCCCC2)c2c1CCCC2 | – | > 10 | 0.267 | > 10 | > 10 | 4.2 | < 1 | > 10 | 0.367 | > 10 | 20 | 10 | – | – | – |
| C[C@H](NS(=O)(=O)c1ccc(-c2sc(C(=O)NCC(C)(C)O)nc2-c2cccc(F)c2)c(Cl)c1Cl)C(F)(F)F | – | – | – | – | – | – | – | – | – | – | – | 69 | > 78 | 122 | – |
| C[C@H](NS(=O)(=O)c1ccc(-c2sc(C(=O)NCC(C)(C)O)nc2C2CCCCC2)c(Cl)c1Cl)C(F)(F)F | – | – | – | – | – | – | – | – | – | – | – | 60 | > 76 | 68 | – |
